Experimental data as given in patent US7226925B2, “Compounds, their use and preparation” (Biovitrum AB, priority 2002, dated 2007).
Structures can show the parent of a compound that is named as a salt.

Tests used:
human 5-HT2C receptor [1] = biological target: T1, human 5-HT2C receptor (Homo sapiens, UniProt P28335); experiment: Affinity assay, displacement of 3H-5-HT, membranes of transfected HEK293 cells, Scintillation Proximity Assay; format: binding; conditions: 3H-5-HT radioligand
T1 construct: expressed in transfected cells
T1 sequence (P28335 33-458): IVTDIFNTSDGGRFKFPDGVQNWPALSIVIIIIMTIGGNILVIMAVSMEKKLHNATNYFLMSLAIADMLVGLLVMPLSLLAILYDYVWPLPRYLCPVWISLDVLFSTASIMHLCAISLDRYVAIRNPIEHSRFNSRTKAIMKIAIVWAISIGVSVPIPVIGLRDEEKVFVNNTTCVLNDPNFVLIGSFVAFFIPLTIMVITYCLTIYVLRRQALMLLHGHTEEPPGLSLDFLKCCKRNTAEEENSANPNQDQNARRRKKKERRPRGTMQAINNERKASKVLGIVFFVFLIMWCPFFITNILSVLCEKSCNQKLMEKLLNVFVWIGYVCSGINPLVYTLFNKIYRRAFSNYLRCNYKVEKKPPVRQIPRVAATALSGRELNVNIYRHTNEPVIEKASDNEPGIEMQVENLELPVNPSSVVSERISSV
Protocol: The receptor affinity of compounds in the Examples was determined in competition experiments, where the ability of each compound in serial dilution to displace ^3H-labelled 5-HT, bound to membranes prepared from a transfected HEK293 cell line stably expressing the human 5-HT2C receptor protein, was monitored by Scintillation Proximity Assay technology. Non-specific binding was defined using 5 μM mianserin.

human 5-HT1A receptor = biological target: T2, human 5-HT1A receptor (Homo sapiens, UniProt P08908); experiment: Affinity assay, displacement of 3H-8-OH-DPAT, CHO cell line; format: binding; conditions: 3H-8-OH-DPAT radioligand, CHO cells
T2 construct: expressed in transfected cells; host or cells: CHO cell line
T2 sequence (P08908 1-422): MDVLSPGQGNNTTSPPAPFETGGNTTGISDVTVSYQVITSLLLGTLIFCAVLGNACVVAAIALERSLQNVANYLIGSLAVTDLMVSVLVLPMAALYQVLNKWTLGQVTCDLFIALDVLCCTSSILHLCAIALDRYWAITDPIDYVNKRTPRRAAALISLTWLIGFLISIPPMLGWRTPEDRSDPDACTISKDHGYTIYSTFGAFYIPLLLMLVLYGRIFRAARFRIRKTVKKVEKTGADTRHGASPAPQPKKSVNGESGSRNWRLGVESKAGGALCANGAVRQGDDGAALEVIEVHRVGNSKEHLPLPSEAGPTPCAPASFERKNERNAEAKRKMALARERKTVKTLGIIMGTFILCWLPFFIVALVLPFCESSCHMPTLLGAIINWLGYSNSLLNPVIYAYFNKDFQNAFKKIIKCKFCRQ
Protocol: (§1) The binding affinities of the compounds for the human 5-HT2A and 5-HT2B receptors in CHO cell lines were determined using ^3H-labelled lysergic acid diethyl amide (LSD) and 5-HT, respectively, as radioligands. The binding affinities of the compounds for the human 5-HT1A and 5-HT1B receptors in CHO cell lines were determined similarly using ^3H-labelled 8-hydroxy-2-(di-n-propylamino)tetralin (8-OH-DPAT) and 5-HT, respectively, as radioligands.

human 5-HT2C receptor [2] = biological target: T1, human 5-HT2C receptor; experiment: In vitro functional assay, intracellular calcium mobilisation in transfected HEK293 cells (FLUO-3); format: cell-based; conditions: for EC50: calcium mobilisation, HEK293 cells; for Efficacy 5-HT2C: maximum response at 1 μM relative to maximum response of 5-HT at 1 μM
Protocol: The agonist efficacy at the 5-HT2C receptor of the compounds in the Examples was determined by the ability of each compound to mobilise intracellular calcium in transfected HEK293 cells, stably expressing the human 5-HT2C receptor protein, using the calcium-chelating fluorescent dye FLUO-3 (Sigma, St. Louis, Mo., U.S.A.).

human 5-HT2B receptor [3] = biological target: T3, human 5-HT2B receptor (Homo sapiens, UniProt P41595); experiment: Affinity assay, displacement of 3H-5-HT, CHO cell line; format: binding; conditions: 3H-5-HT radioligand, CHO cells
T3 construct: expressed in transfected cells; host or cells: CHO cells
T3 sequence (P41595 whole entry): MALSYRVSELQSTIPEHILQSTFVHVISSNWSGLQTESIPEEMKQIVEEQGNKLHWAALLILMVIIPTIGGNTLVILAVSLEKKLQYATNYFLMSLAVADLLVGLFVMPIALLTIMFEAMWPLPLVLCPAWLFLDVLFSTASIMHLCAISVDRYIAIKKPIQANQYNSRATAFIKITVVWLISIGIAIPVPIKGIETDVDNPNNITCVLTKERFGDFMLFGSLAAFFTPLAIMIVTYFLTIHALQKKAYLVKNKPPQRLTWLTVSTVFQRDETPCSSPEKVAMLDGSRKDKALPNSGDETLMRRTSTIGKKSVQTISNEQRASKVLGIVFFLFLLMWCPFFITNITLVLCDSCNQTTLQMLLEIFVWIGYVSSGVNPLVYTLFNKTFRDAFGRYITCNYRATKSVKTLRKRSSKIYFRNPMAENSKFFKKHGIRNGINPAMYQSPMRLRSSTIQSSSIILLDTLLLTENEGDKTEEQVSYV
Protocol: as §1

human 5-HT1B receptor = biological target: T4, human 5-HT1B receptor (Homo sapiens, UniProt P28222); experiment: as above; format: binding; conditions: 3H-5-HT radioligand, CHO cells
T4 construct: expressed in transfected cells; host or cells: CHO cell line
T4 sequence (P28222 whole entry): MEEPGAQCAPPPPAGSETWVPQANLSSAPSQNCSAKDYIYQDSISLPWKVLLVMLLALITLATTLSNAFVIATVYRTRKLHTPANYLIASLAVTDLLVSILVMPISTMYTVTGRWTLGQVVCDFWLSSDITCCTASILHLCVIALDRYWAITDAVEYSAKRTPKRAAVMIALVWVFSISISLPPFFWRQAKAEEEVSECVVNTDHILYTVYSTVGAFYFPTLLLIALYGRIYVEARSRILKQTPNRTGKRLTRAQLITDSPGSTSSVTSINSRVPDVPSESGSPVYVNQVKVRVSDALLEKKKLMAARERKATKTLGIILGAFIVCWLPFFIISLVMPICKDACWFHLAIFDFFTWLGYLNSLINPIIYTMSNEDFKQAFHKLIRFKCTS
Protocol: as §1

human 5-HT2B receptor [4] = biological target: T3, human 5-HT2B receptor; experiment: In vitro functional assay, intracellular calcium mobilisation in CHO cells; format: cell-based; conditions: for EC50: calcium mobilisation, CHO cells; for Efficacy 5-HT2B: maximum response at 1 μM relative to maximum response of 5-HT at 1 μM
Protocol: (§2) The ability of the compounds to mobilise intracellular calcium at the 5HT2A and 5-HT2B receptors was determined similarly using CHO cells expressing the human 5-HT2A or human 5-HT2B receptors.
(§3) The maximum functional responses of the compounds, at 1 μM, at the 5-HT2A, 5-HT2B and 5-HT2C receptors are expressed relative to the maximum response of 5-HT (serotonin) at a concentration of 1 μM.

human 5-HT2A receptor [5] = biological target: T5, human 5-HT2A receptor (Homo sapiens, UniProt P28223); experiment: as above; format: cell-based; conditions: for EC50: calcium mobilisation, CHO cells; for Efficacy 5-HT2A: maximum response at 1 μM relative to maximum response of 5-HT at 1 μM
T5 construct: expressed in transfected cells; host or cells: CHO cells
T5 sequence (P28223 whole entry): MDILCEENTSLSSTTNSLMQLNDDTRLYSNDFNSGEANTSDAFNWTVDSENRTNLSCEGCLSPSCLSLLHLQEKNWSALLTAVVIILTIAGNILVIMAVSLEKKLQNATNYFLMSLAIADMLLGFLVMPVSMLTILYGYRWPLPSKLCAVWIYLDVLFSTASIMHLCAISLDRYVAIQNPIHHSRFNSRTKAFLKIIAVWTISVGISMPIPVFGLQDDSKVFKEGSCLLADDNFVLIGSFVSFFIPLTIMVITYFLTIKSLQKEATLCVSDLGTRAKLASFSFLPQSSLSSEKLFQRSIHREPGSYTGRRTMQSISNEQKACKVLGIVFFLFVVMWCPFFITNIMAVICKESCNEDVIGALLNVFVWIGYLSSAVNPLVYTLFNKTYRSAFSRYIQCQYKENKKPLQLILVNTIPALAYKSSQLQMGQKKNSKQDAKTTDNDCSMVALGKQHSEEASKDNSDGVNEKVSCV
Protocol: as §2, §3

human 5-HT2A receptor [6] = biological target: T5, human 5-HT2A receptor; experiment: Affinity assay, displacement of 3H-LSD, CHO cell line; format: binding; conditions: 3H-LSD radioligand, CHO cells
Protocol: as §1

Row | Structure (SMILES) | melting point [°C] | Ki (human 5-HT2C receptor [1]) [nM] | Ki (human 5-HT1A receptor) [nM] | EC50 (human 5-HT2C receptor [2]) [nM] | Efficacy 5-HT2C (human 5-HT2C receptor [2]) [%] | Ki (human 5-HT2B receptor [3]) [nM] | Ki (human 5-HT1B receptor) [nM] | EC50 (human 5-HT2B receptor [4]) [nM] | Efficacy 5-HT2B (human 5-HT2B receptor [4]) [%] | EC50 (human 5-HT2A receptor [5]) [nM] | Efficacy 5-HT2A (human 5-HT2A receptor [5]) [%] | Ki (human 5-HT2A receptor [6]) [nM]
1 | C[C@@H]1CNCCN1c1nccnc1OCCOc1cccnc1OCCN(C)C (as salt: acetate) [Example 1, N,N-Dimethyl-(2-(3-[2-(2-(R)-methyl-3,4,5,6-tetrahydro-2H-[1,2′]bipyrazinyl-3′-yloxy)-ethoxy]-pyridin-2-yloxy)-ethyl)-amine] | 75 | – | – | – | – | – | – | – | – | – | – | –
2 | CC(C)N(CCOc1ncccc1OCCOc1nccnc1N1CCNC[C@H]1C)C(C)C (as salt: acetate) [Example 2, N,N-Diisopropyl-(2-(3-[2-(2-(R)-methyl-3,4,5,6-tetrahydro-2H-[1,2′]bipyrazinyl-3′-yloxy)-ethoxy]-pyridin-2-yloxy)-ethyl)-amine] | 87 | – | – | – | – | – | – | – | – | – | – | –
3 | C[C@@H]1CNCCN1c1nccnc1OCCOc1cccnc1OCCN(C)C [Example 1, N,N-Dimethyl-(2-(3-[2-(2-(R)-methyl-3,4,5,6-tetrahydro-2H-[1,2′]bipyrazinyl-3′-yloxy)-ethoxy]-pyridin-2-yloxy)-ethyl)-amine] | – | 12 | 800 | 4.2 | 117 | > 1000 | > 1000 | 1940 | 16 | 1200 | 14 | > 1000
4 | CC(C)N(CCOc1ncccc1OCCOc1nccnc1N1CCNC[C@H]1C)C(C)C [Example 2, N,N-Diisopropyl-(2-(3-[2-(2-(R)-methyl-3,4,5,6-tetrahydro-2H-[1,2′]bipyrazinyl-3′-yloxy)-ethoxy]-pyridin-2-yloxy)-ethyl)-amine] | – | 10 | 380 | 3.9 | 111 | > 1000 | 200 | 900 | 33 | 260 | 40 | > 1000
